Experiments:
[1] = tested on: sulfonylurea herbicide-resistant Scirpus juncoides var. ohwianus; assay: Paddy pot weeding test, flooded, two-leaf stage (Test Example 1); type: in vivo; conditions: 1 g/are, three weeks after treatment, resistant biotype, Iwamisawa City, Hokkaido
Source text: (§1) A 5 cm×5 cm Jiffy Pot™ was charged with paddy soil, then water was introduced into each pot, seeds of sulfonylurea herbicide-sensitive Scirpus juncoides var. ohwianus, sulfonylurea herbicide-sensitive Lindernia procumbens (Krock.) Philcox, sulfonylurea herbicide-sensitive Lindernia dubia subsp. major Pennell, sulfonylurea herbicide-resistant Scirpus juncoides var. ohwianus, sulfonylurea herbicide-resistant Lindernia procumbens (Krock.) Philcox and sulfonylurea herbicide-resistant Lindernia dubia subsp. major Pennell were sowed therein and cultivated for a prescribed period under flooding conditions. When the plants reached the two-leave stage, the prescribed number of Jiffy Pots where the plants had been grown were transferred to a 150-cm^2 rectangular plastic pot, and water was introduced to a height of 3 cm, and a chemical diluent containing a compound was applied into the pot in an amount of 1 g/are. The chemical diluent was prepared by dissolving 1.5 g compound in 2 L of N,N-dimethylformamide (DMF) containing, 2% (W/V) surfactant Tween™ 20 and then diluting it with water to adjust the total volume to 10 L.

[2] = tested on: sulfonylurea herbicide-resistant Lindernia dubia subsp. major Pennell; assay: as above; type: in vivo; conditions: 1 g/are, three weeks after treatment, resistant biotype, Kawanishi Town, Yamagata Pref.
Source text: as §1

[3] = tested on: sulfonylurea herbicide-sensitive Scirpus juncoides var. ohwianus; assay: as above; type: in vivo; conditions: 1 g/are, three weeks after treatment, sensitive biotype, Kyoto Pref.
Source text: as §1

[4] = tested on: sulfonylurea herbicide-sensitive Lindernia procumbens (Krock.) Philcox; assay: as above; type: in vivo; conditions: 1 g/are, three weeks after treatment, sensitive biotype, Kyoto Pref.
Source text: as §1

[5] = tested on: sulfonylurea herbicide-resistant Lindernia procumbens (Krock.) Philcox; assay: as above; type: in vivo; conditions: 1 g/are, three weeks after treatment, resistant biotype, Tajiri Town, Miyagi Pref.
Source text: as §1

[6] = tested on: sulfonylurea herbicide-sensitive Lindernia dubia subsp. major Pennell; assay: as above; type: in vivo; conditions: 1 g/are, three weeks after treatment, sensitive biotype, Makabe Town, Ibaraki Pref.
Source text: as §1

Structure (SMILES) | melting point | R Scirpus juncoides var. ohwianus (effect index) [1] | R Lindernia dubia subsp. major Pennell (effect index) [2] | S Scirpus juncoides var. ohwianus (effect index) [3] | S Lindernia procumbens (Krock.) Philcox (effect index) [4] | R Lindernia procumbens (Krock.) Philcox (effect index) [5] | S Lindernia dubia subsp. major Pennell (effect index) [6]
CCOc1ccc2nc(CC)c(NC(=O)NS(=O)(=O)c3nc(OC)cc(OC)n3)n2n1 [Compound No. 5] | 180 to 181 °C |  |  |  |  |  | 
COc1cc(OC)nc(S(=O)(=O)NC(=O)Nc2c(C)nc3c(C)cc(N(C)C)nn23)n1 [Compound No. 15] | 266 to 268 °C (dec.) |  |  |  |  |  | 
CCOc1ccn2nc(C)c(NC(=O)NS(=O)(=O)c3nc(OC)cc(OC)n3)c2n1 [compound 34] |  | 4 (high 61 to 80) | 5 (excellent 81 to 100) | 4 (high 61 to 80) | 5 (excellent 81 to 100) |  | 
CCc1nc2ccc(OC)nn2c1NC(=O)NS(=O)(=O)c1nc(OC)cc(OC)n1 [Compound No. 6] | 118 to 123 °C (dec.) |  |  |  |  |  | 
COc1cc(OC)nc(NC(=O)NS(=O)(=O)c2c(Cl)nc3ccc(C(C)C)nn23)n1 [Compound No. 40] |  | 5 (excellent 81 to 100) | 5 (excellent 81 to 100) | 5 (excellent 81 to 100) | 5 (excellent 81 to 100) | 5 (excellent 81 to 100) | 5 (excellent 81 to 100)
CCCCc1ccc2nc(Cl)c(S(=O)(=O)NC(=O)Nc3nc(OC)cc(OC)n3)n2n1 [Compound No. 41] |  | 5 (excellent 81 to 100) | 5 (excellent 81 to 100) | 5 (excellent 81 to 100) | 5 (excellent 81 to 100) | 4 (high 61 to 80) | 5 (excellent 81 to 100)
COc1cc(OC)nc(NC(=O)NS(=O)(=O)c2c(Cl)nc3ccc(C4CC4)nn23)n1 [Compound No. 44] |  | 4 (high 61 to 80) | 5 (excellent 81 to 100) | 5 (excellent 81 to 100) | 5 (excellent 81 to 100) |  | 5 (excellent 81 to 100)
COc1cc(OC)nc(S(=O)(=O)NC(=O)Nc2c(C)nc3c(C)cc(SC)nn23)n1 [Compound No. 20] | 191 to 193 °C (dec.) |  |  |  |  |  | 
CCSc1ccc2nc(Cl)c(NC(=O)NS(=O)(=O)c3nc(OC)cc(OC)n3)n2n1 [Compound No. 25] | 180 to 182 °C | 5 (excellent 81 to 100) | 4 (high 61 to 80) | 5 (excellent 81 to 100) | 5 (excellent 81 to 100) |  | 5 (excellent 81 to 100)
COc1cc(OC)nc(S(=O)(=O)NC(=O)Nc2c(C)nc3ccc(OC)nn23)n1 [Compound No. 17] | 241 °C |  |  |  |  |  | 
CCc1nc2ccc(Cl)nn2c1NC(=O)NS(=O)(=O)c1nc(OC)cc(OC)n1 [Compound No. 2] | 174 to 175 °C |  |  |  |  |  | 
CCCc1nc2ccc(SC)nn2c1S(=O)(=O)NC(=O)Nc1nc(OC)cc(OC)n1 [Compound No. 31] |  | 5 (excellent 81 to 100) | 4 (high 61 to 80) | 5 (excellent 81 to 100) | 5 (excellent 81 to 100) |  | 5 (excellent 81 to 100)
CCOc1ccc2nc(C(F)(F)F)c(NC(=O)NS(=O)(=O)c3nc(OC)cc(OC)n3)n2n1 [Compound No. 10] | 169 to 171 °C |  |  |  |  |  | 
COc1cc(OC)nc(NC(=O)NS(=O)(=O)c2c(Cl)nc3cccnn23)n1 [comparison 2, reference compound] |  | 0 (none 0) | 0 (none 0) | 5 (excellent 81 to 100) | 5 (excellent 81 to 100) | 0 (none 0) | 5 (excellent 81 to 100)
C=Cc1ccc2nc(Cl)c(S(=O)(=O)NC(=O)Nc3nc(OC)cc(OC)n3)n2n1 [Compound No. 43] |  | 4 (high 61 to 80) | 5 (excellent 81 to 100) | 5 (excellent 81 to 100) | 5 (excellent 81 to 100) |  | 5 (excellent 81 to 100)
CCOc1ccc2nc(Cl)c(NC(=O)NS(=O)(=O)c3nc(OC)cc(OC)n3)n2n1 [Compound No. 23] | 168 to 169 °C | 5 (excellent 81 to 100) | 4 (high 61 to 80) | 5 (excellent 81 to 100) | 5 (excellent 81 to 100) |  | 5 (excellent 81 to 100)
COc1cc(C)nc(S(=O)(=O)NC(=O)Nc2c(Cl)nc3ccc(SC)nn23)n1 [Compound No. 27] | 172 to 174 °C |  |  |  |  |  | 
COc1cc(OC)nc(NC(=O)NS(=O)(=O)c2c(C)nc3cccnn23)n1 [comparison 1, reference compound] |  | 2 (slight 21 to 40) | 1 (very slight 1 to 20) | 5 (excellent 81 to 100) | 5 (excellent 81 to 100) | 0 (none 0) | 5 (excellent 81 to 100)
CCSc1ccc2nc(C(F)(F)F)c(NC(=O)NS(=O)(=O)c3nc(OC)cc(OC)n3)n2n1 [Compound No. 11] | 179 to 180 °C | 5 (excellent 81 to 100) | 5 (excellent 81 to 100) | 5 (excellent 81 to 100) | 5 (excellent 81 to 100) |  | 5 (excellent 81 to 100)
CCCc1ccc2nc(F)c(S(=O)(=O)NC(=O)Nc3nc(OC)cc(OC)n3)n2n1 [Compound No. 46] |  | 5 (excellent 81 to 100) | 5 (excellent 81 to 100) | 5 (excellent 81 to 100) | 5 (excellent 81 to 100) |  | 5 (excellent 81 to 100)
CCCc1ccc2nc(C)c(S(=O)(=O)NC(=O)Nc3nc(OC)cc(OC)n3)n2n1 [Compound No. 36] |  | 5 (excellent 81 to 100) | 5 (excellent 81 to 100) | 5 (excellent 81 to 100) | 5 (excellent 81 to 100) | 5 (excellent 81 to 100) | 5 (excellent 81 to 100)
COc1cc(OC)nc(S(=O)(=O)NC(=O)Nc2c(C)nc3ccc(S(C)(=O)=O)nn23)n1 [Compound No. 21] | 246 to 248 °C (dec.) |  |  |  |  |  | 
CCc1nc2ccc(C)nn2c1NC(=O)NS(=O)(=O)c1nc(OC)cc(OC)n1 [Compound No. 1] | 182 to 184 °C |  |  |  |  |  | 
CCCc1ccc2nc(Cl)c(S(=O)(=O)NC(=O)Nc3nc(OC)cc(OC)n3)n2n1 [Compound No. 38, 1-(2-chloro-6-n-propylimidazo[1,2-b]pyridazin-3-ylsulfonyl)-3-(4,6-dimethoxypyrimidin-2-yl)urea] |  | 5 (excellent 81 to 100) | 5 (excellent 81 to 100) | 5 (excellent 81 to 100) | 5 (excellent 81 to 100) | 5 (excellent 81 to 100) | 5 (excellent 81 to 100)
COc1cc(OC)nc(S(=O)(=O)NC(=O)Nc2c(Cl)nc3ccc(N(C)C)nn23)n1 [Compound No. 22] | 193 to 195 °C |  |  |  |  |  | 
C/C=C/c1ccc2nc(Cl)c(S(=O)(=O)NC(=O)Nc3nc(OC)cc(OC)n3)n2n1 [Compound No. 45] |  | 4 (high 61 to 80) | 5 (excellent 81 to 100) | 5 (excellent 81 to 100) | 5 (excellent 81 to 100) |  | 5 (excellent 81 to 100)

Reference: US8399381B2, “Condensed heterocyclic sulfonyl urea compound, a herbicide containing the same, and a method for weed control using the same” (Sumitomo Chemical Company, Limited, priority 2002, dated 2013)
